Test results from patent publication US20120122982A1, “USE OF PUFAS TO TREAT NERVE DAMAGE” (Equateq Limited, priority 2009, published 2012).

What was measured:
Assay type in all cases: in vivo, rat
diabetic rats [1] = experiment: Corpus cavernosum pressure responses to cavernous nerve stimulation
Procedure: (§1) Diabetes was induced in mature (19 week old) male Sprague-Dawley by streptozotocin injection (40-45 mg/kg i.p.). The diabetic state was monitored weekly using commercially available test strips for blood (tail vein) and urine glucose levels. Body weight would also be monitored daily. The criteria for the diabetic state are; blood glucose>19.9 mM, glycosuria, and no evidence of body weight gain (which would indicate partial recovery of beta cell function). At the end of the experiments, blood samples would be taken for the determination of plasma glucose.
(§2) Experiments were designed with a reversal (intervention) paradigm: diabetic rats were untreated for 6 weeks to allow the development of neurovascular dysfunction. They were then treated over the next 2 weeks with a dose of 1 mg/kg/day of a representative compound of the invention, 13-HODE, given as a dietary supplement dispersed in the food with a sunflower oil vehicle (50 ml/2.5 kg food). Groups of nondiabetic control rats and diabetic rats treated with vehicle alone were also studied. […]
Non-diabetic control rats, diabetic rats treated with vehicle alone and diabetic rats treated with 13-HODE were anaesthetized with thiobutabarbital (50-100 mg kg^−1 i.p.). […] Cavernosal pressure responses were recorded in response to 60 s periods of suprathreshold (3-5 mA) nerve stimulation at frequencies in the range 1-32 Hz (stimulus duration 1.5-2 ms). […]

diabetic rats [2] = experiment: Motor nerve conduction velocity (NCV) in sciatic nerve of streptozotocin-diabetic rats; details: for motor NCV: 2-week daily oral treatment after 6 weeks untreated diabetes, diabetic around 50 m/s, non-diabetic around 60 m/s; for ED50: Rattus norvegicus, calculated from dose response curves of FIG. 13; for times more potent than GLA in restoring motor nerve conduction velocity: from ED50 values
Procedure: (§3) Male Sprague-Dawley rats (Aberdeen University colony) were used, which were 19 weeks old at the start of the study. Diabetes was induced by intraperitoneal streptozotocin injection at 40-45 mg kg^−1 freshly dissolved in sterile 0.9% saline solution. This was verified 24 hours later by estimating hyperglycaemia (blood glucose>19.9 mM) and glycosuria, and diabetic state was monitored weekly using test strips for blood (tail vein) and urine glucose levels. Body weight was also monitored daily to check against body weight gain (which would indicate partial recovery of beta cell function and exclude diabetic status).
(§4) After 6 weeks of untreated diabetes, four experimental groups (n=6 per group) were treated for a 2-week period, with a daily oral administration of 13-HODE at a range of dosages (13-Hydoxydienoic acid, Equateq, Isle of Lewis, UK), added to the food and dispersed in a sunflower oil vehicle. Experimental groups were treated with doses of a representative compound of the invention,13-HODE, ranging from 0.01 mg/kg/day to 100 mg/kg/day.
Rats were anaesthetized with thiobutabarbital sodium (50-100 mg kg^−1 i.p.). The trachea was cannulated for artificial respiration.
The sciatic nerve was exposed between the sciatic notch and knee, and Motor nerve conduction velocity (NCV) was measured using concentric bipolar electrodes, as described in Cameron N E, et al (1989) Q J Exp Physiol 74:917-926 and Cameron N E, et al (1991) Diabetes 40:532-539, in the nerve branch to tibialis anterior muscle, which is representative of the whole sciatic nerve in terms of susceptibility to diabetes and treatment effects. Evoked electromyographic (EMG) potentials from each stimulating site were averaged 8 times, and Motor NCV was calculated by dividing the distance between stimulating electrodes by the average latency difference between the onset of EMG potentials evoked from the 2 sites. Nerve temperatures were monitored by thermocouple probes, and maintained in the range 36-38° C. by radiant heat. Body temperature was also maintained around 37° C. using a heated blanket.
Experiments were carried out in similar fashions to Examples 1 and 2 except that 15-HETrE was used instead of 13-HODE.
An experiment was carried out in accordance with the method of Example 1 to determine the effect of GLA, 13-HODE and 15-HETrE on Motor NCV in diabetic rats.

diabetic rats [3] = experiment: Tactile allodynia, electronic von Freys hair apparatus; details: 1 mg/kg/day in food for 2 weeks
Procedure: as §1, §2
Tactile allodynia in non-diabetic control rats, diabetic rats treated with vehicle alone and diabetic rats treated with 13-HODE was monitored using an electronic von Freys hair apparatus. […] Allodynia was measured for each foot on one day.

diabetic rats [4] = experiment: Hargreaves plantar test, withdrawal latency to noxious thermal stimulation of the foot; details: 1 mg/kg/day in food for 2 weeks
Procedure: as §1
as §2, with “food).” for “food). Groups of nondiabetic control rats and diabetic rats treated with vehicle alone were also studied.”
Before final experiments, nociceptive latencies for withdrawal reflexes to noxious thermal stimulation of the foot were estimated by the Hargreaves plantar test using commercially available equipment (Ugo-Basile, Comerio, Italy). […] After 30 min acclimatization, a constant power infrared stimulus was focused through the glass base onto the sole of the foot and the latency for reflex foot withdrawal automatically recorded via a photoelectric monitor. […]

diabetic rats [5] = experiment: Sensory nerve conduction velocity (NCV) in saphenous nerve of streptozotocin-diabetic rats; details: 2-week daily oral treatment after 6 weeks untreated diabetes, diabetic around 50 m/s, non-diabetic around 60 m/s
Procedure: as §3, §4
Rats were anaesthetized with thiobutabarbital sodium (50-100 mg kg^−1 i.p.). […]
An experiment was carried out in a similar fashion to Example 1 except that Sensory NCV was measured in the saphenous nerve between groin and mid calf. Direct nerve evoked potentials were recorded at the ankle using a unipolar platinum hook electrode. […]

diabetic rats [6] = experiment: Randall-Sellito test, mechanical pressure thresholds; details: 1 mg/kg/day in food for 2 weeks
Procedure: as §1
Experiments were designed with a reversal (intervention) paradigm: diabetic rats were untreated for 6 weeks to allow the development of neurovascular dysfunction. They were then treated over the next 2 weeks with a dose of 1 mg/kg/day of a representative compound of the invention, 13-HODE, given as a dietary supplement dispersed in the food with a sunflower oil vehicle (50 ml/2.5 kg food). Groups of nondiabetic control rats and diabetic rats treated with vehicle alone were also studied.
Groups of non-diabetic control rats, diabetic rats treated with vehicle alone and diabetic rats treated with 13-HODE were obtained as in Example 4.
Before final experiments, nociceptive thresholds for mechanical stimulation were measured by the Randall-Sellito test . […]

diabetic rats [7] = experiment: Major pelvic ganglion blood flow by hydrogen clearance; details: 1 mg/kg/day in food for 2 weeks
diabetic rats [8] = experiment: Sciatic nerve endoneurial blood flow by microelectrode polarography and hydrogen clearance; details: 1 mg/kg/day in food for 2 weeks, flow halved in diabetic rats
Procedure: as §1, with “glucose. […]” for “glucose.”
Sciatic nerve endoneurial blood flows in non-diabetic control rats, diabetic rats treated with vehicle alone and diabetic rats treated with 13-HODE were estimated by microelectrode polarography and hydrogen clearance, using the methods described in Day T J, Lagerlund T D, Low P A (1989) Analysis of H2 clearance curves used to measure blood flow in rat sciatic nerve, J Physiol 414:35-54, and Cameron N E, Cotter M A, Low P A (1991) Nerve blood flow in early experimental diabetes in rats: relation to conduction deficits, Am J Physiol 261:E1-E8. […] The level of anaesthesia was monitored by observing any reaction of blood pressure to manipulation, and supplementary thiobutabarbital anaesthetic given as necessary. […]

SMILES | whole-frequency response curve versus nondiabetic controls (diabetic rats [1]; 1 mg/kg/day for 2 weeks, 2-way ANOVA p<0.01) | cavernosal pressure responses to nerve stimulation: diabetic deficit (diabetic rats [1]; 1 mg/kg/day in food for 2 weeks, stimulation 1-32 Hz) | motor NCV (diabetic rats [2]) | ED50 (diabetic rats [2]) [mg/kg] | times more potent than GLA in restoring motor nerve conduction velocity (diabetic rats [2]) | tactile allodynia (threshold for foot withdrawal to tactile stimulation) (diabetic rats [3]) | latency of response to thermal stimuli (increased sensitivity to noxious heat) (diabetic rats [4]) | sensory NCV (diabetic rats [5]) | sensitivity to mechanical deep pressure (foot withdrawal) (diabetic rats [6]) | major pelvic ganglion blood flow (diabetic rats [7]) | sciatic nerve endoneurial blood flow (diabetic rats [8])
CCCCCC(O)/C=C/C=C\CCCCCCCC(=O)O (stereo not shown) [13-HODE, 13-Hydroxyoctadeca-9Z,11E-dienoic acid] | significantly greater pressure response | completely corrected | around 60 m/s | 0.057 | approximately 3000 times | almost completely reversed | completely corrected | around 60 m/s | small but statistically significant improvement | restored to within the nondiabetic range | completely restored
CCCCCC(O)/C=C/C=C\C/C=C\CCCCCCC(=O)O (stereo not shown) [15-HETrE, 15-Hydroxy-eicosa-8Z,11Z,13E-trienoic acid] | – | – | around 60 m/s | 0.252 | approximately 500 times | – | – | around 60 m/s | – | – | –
CCCCC/C=C\C/C=C\C/C=C\CCCCC(=O)O [GLA, gamma-linolenic acid, reference compound] | – | – | – | 165 | – | – | – | – | – | – | –
